Laboratory results taken from patent publication US12344610B2, “APOL1 inhibitors and methods of use” (Maze Therapeutics, Inc., priority 2022, dated 2025).

Key:
Type in all cases: cell-based
[1] = system: Trypanosoma brucei Lister 427 VSG221 with APOL1 G1 recombinant protein; assay: APOL1 G1 trypanosome cell rescue assay (Example B5); conditions: Trypanosoma brucei, 20 h, read-out: APOL1 G1 Trypanosome Rescue EC50, Trypanosoma brucei Lister 427 VSG221 with APOL1 G1 recombinant protein, 20 hours, CellTiter-Glo; geometric mean of at least 2 assay runs; † = single assay run
Procedure, shortened: (§1)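 Recombinant mature APOL1 (residues 28-398, His-tag removed, E. coli-expressed, refolded from inclusion bodies, DDM buffer) at […] added with 250 trypanosomes/well in modified HMI-9 media. Duplicate 11-point 2-fold compound series, 0.4% DMSO; 20 h at 37° C, 5% CO2, then CellTiter-Glo luminescence for viability.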

[2] = system: HEK293 clonal cell line overexpressing APOL1 G1; assay: APOL1 G1 HEK293 cell rescue assay (Example B3); conditions: Homo sapiens, HEK293, HEK293 clonal line overexpressing APOL1 G1; geometric mean of at least 2 runs; † = single run; ¥ = concentration at 50% rescue estimated (no sigmoidal curve)
Procedure, shortened: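 HEK293 clonal line overexpressing APOL1 G1; EC50 is half-maximal reversal of APOL1-induced cell death. Values are the geometric mean of ≥2 runs on separate days, each run the average of duplicate wells. Where no sigmoidal curve could be fitted, the concentration giving 50% rescue was estimated.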

[3] = system: Trypanosoma brucei Lister 427 VSG221 with APOL1 G0 recombinant protein; assay: APOL1 G0 trypanosome cell rescue assay (Example B5); conditions: Trypanosoma brucei, 20 h, read-out: APOL1 G0 Trypanosome Rescue EC50, Trypanosoma brucei Lister 427 VSG221 with APOL1 G0 recombinant protein, 20 hours, CellTiter-Glo; geometric mean of at least 2 assay runs; † = single assay run
Procedure, shortened: as §1

[4] = system: Trypanosoma brucei Lister 427 VSG221 with APOL1 G2 recombinant protein; assay: APOL1 G2 trypanosome cell rescue assay (Example B5); conditions: Trypanosoma brucei, 20 h, read-out: APOL1 G2 Trypanosome Rescue EC50, Trypanosoma brucei Lister 427 VSG221 with APOL1 G2 recombinant protein, 20 hours, CellTiter-Glo; geometric mean of at least 2 assay runs; † = single assay run
Procedure, shortened: as §1

| SMILES | EC50 [1] [µM] | EC50 [2] [µM] | EC50 [3] [µM] | EC50 [4] [µM] |
| --- | --- | --- | --- | --- |
| CN1C(=O)C2(CCN(CCOc3cc(F)c(C4(S(C)(=O)=O)COC4)c(F)c3)CC2)c2cc(C#N)ccc21 [Compound 189, 1′-{2-[3,5-difluoro-4-(3-methanesulfonyloxetan-3-yl)phenoxy]ethyl}-1-methyl-2-oxo-1,2-dihydrospiro[indole-3,4′-piperidine]-5-carbonitrile] | 0.246 | 0.148 | 0.167 | 0.0614 |
| CC(c1ccc(OCCN2CCC3(CC2)C(=O)Nc2ccc(C#N)cc23)cc1)S(C)(=O)=O (single isomer, unassigned) [Compound 134, (S) or (R)-1′-{2-[4-(1-methanesulfonylethyl)phenoxy]ethyl}-2-oxo-1,2-dihydrospiro[indole-3,4′-piperidine]-5-carbonitrile] | 0.991 | 0.991 | 0.851 | 0.277 |
| CC(c1c(F)cc(OCCN2CCC3(CC2)C(=O)Nc2ccc(C#N)cc23)cc1F)S(C)(=O)=O (single isomer, unassigned) [Compound 138, (S) or (R)-1′-{2-[3,5-difluoro-4-(1-methanesulfonylethyl)phenoxy]ethyl}-2-oxo-1,2-dihydrospiro[indole-3,4′-piperidine]-5-carbonitrile] | 0.585 | 0.253 | 0.326 | 0.165 |
| CN=S(C)(=O)c1ccc(OCCN2CCC3(CC2)C(=O)Nc2ccc(C#N)cc23)cc1 (single isomer, unassigned) [Compound 151, (S) or (R)-1′-(2-{4-[methyl(methylimino)oxo-λ^6-sulfanyl]phenoxy}ethyl)-2-oxo-1,2-dihydrospiro[indole-3,4′-piperidine]-5-carbonitrile] | 1.33 | ~2.5 | 1.04 | 0.347 |
| CS(=O)(=O)c1ccc(OCCN2CCC3(CC2)C(=O)Nc2ccc(Cl)cc23)cc1C(F)(F)F [Compound 108, 5-chloro-1′-{2-[4-methanesulfonyl-3-(trifluoromethyl)phenoxy]ethyl}-1,2-dihydrospiro[indole-3,4′-piperidin]-2-one] | 0.0307 | 0.0497 | 0.0233 | 0.00922 |
| CN=S(C)(=O)c1ccc(OCCN2CCC3(CC2)C(=O)Nc2ccc(C#N)cc23)cc1 (stereo not drawn) [Compound 150, 1′-(2-{4-[methyl(methylimino)oxo-λ^6-sulfanyl]phenoxy}ethyl)-2-oxo-1,2-dihydrospiro[indole-3,4′-piperidine]-5-carbonitrile] | 2.29 | 1.54 | 1.44 | 0.519 |
| O=C1CCc2cc(OCCN3CCC4(CC3)C(=O)Nc3ccc(Cl)cc34)ccc2N1CCO [Compound 162, 5-chloro-1′-(2-{[1-(2-hydroxyethyl)-2-oxo-1,2,3,4-tetrahydroquinolin-6-yl]oxy}ethyl)-1,2-dihydrospiro[indole-3,4′-piperidin]-2-one] | 0.142 | 0.174 | 0.143 | 0.0509 |
| Cc1cc(OCCN2CCC3(CC2)C(=O)Nc2ccc(C#N)cc23)ccc1S(C)(=O)=O [Compound 111, 1′-[2-(4-methanesulfonyl-3-methylphenoxy)ethyl]-2-oxo-1,2-dihydrospiro[indole-3,4′-piperidine]-5-carbonitrile] | 0.362 | 0.246 | 0.282 | 0.105 |
| CN(c1c(F)cc(OCCN2CCC3(CC2)C(=O)Nc2ccc(Cl)cc23)cc1F)S(C)(=O)=O [Compound 127, N-[4-(2-{5-chloro-2-oxo-1,2-dihydrospiro[indole-3,4′-piperidin]-1′-yl}ethoxy)-2,6-difluorophenyl]-N-methylmethanesulfonamide] | 0.0839 | 0.061 | 0.0649 | 0.0294 |
